Article PMC4912613, “A broad analysis of resistance development in the malaria parasite” (Nature Communications, 2016)
Read-outs that look alike come from different tables or passages of the source.

Legend:
P. falciparum strain 3D7 = test: Asexual blood stage 3H-hypoxanthine incorporation assay, 3D7; type: cell-based, Plasmodium falciparum; conditions: Plasmodium falciparum, 3D7, asexual stage, P. falciparum 3D7; read-out: 3D7 EC50
Method: The 48-h assay was carried out in a 96-well format following standard methods using the ^3H-hypoxanthine incorporation assay. The raw EC50 values corresponding to this assay can be found in Supplementary Data 3. Briefly, this assay relies on the parasite incorporation of labelled hypoxanthine that is proportional to P. falciparum growth. A culture of parasitized RBCs (0.5% parasitemia with a percentage of ring stage higher than 70% of total parasitemia, 2.0% haematocrit) in RPMI-1640, […] and 5 μM hypoxanthine was exposed to drug serial dilutions. Plates were incubated for 24 h at 37 °C, 5% CO2, 5% O2 and 90% N2. After 24 h of incubation, ^3H-hypoxanthine was added and plates were incubated for an additional 24-h period. After that, parasites were harvested on a glass fibre filter using a TOMTEC Cell Harvester 96. Filters were dried and melt-on scintillator sheets were used to determine the incorporation of ^3H-hypoxanthine. Radioactivity was measured using a microbeta counter. Data were normalized using the incorporation of the positive (parasitized RBCs without drug) and negative (same culture with artesunate at 2 μM) controls. All assays were conducted in triplicate using three independently grown cultures, and EC50 values were determined using the XLfit add-in module for Excel (version 2.3.1) from Grafit (version 5.3.1.3), where parameter h is the assay hill slope, x is the compound concentration and y is the inhibition of growth effect. The XLfit equation is: […]

[1] = tested on: CYTb-G131S (cytb G131S, parent Dd2); test: Cross-resistance EC50 assay, CYTb-G131S; type: cell-based, Plasmodium falciparum; conditions: Plasmodium falciparum, SYBR green 72 hour assay, synchronized parasites, 384-well format
Excerpt: (§1) To evaluate potential overlapping activity against known antimalarial drug targets, we performed dose-response studies with each compound against our assembled set of drug-resistant lines and their corresponding parents, in an asexual blood stage proliferation assay (Table 1). Comparisons were made to the drug-sensitive strain 3D7 when a parent was unavailable (TM90C2A, W2 and Dd2). As laboratories conducted EC50 assays with different strains and protocols, all comparisons were made between assays from the same laboratory and under the same assay conditions. Compounds displaying >5-fold EC50 shifts relative to the parent or sensitive strain were flagged as having potentially non-novel targets. Average fold shifts per strain ranged from 0.82 to 2.34, with a median of 1.23 indicating there was not common resistance to any one resistant clone. No resistance patterns were observed when classifying the compounds based on chemical structure, but this was not surprising given the diversity of compounds chosen. On the other hand, given that these confirmed compounds were derived from larger unconfirmed hit lists to which some filtration criteria may have been applied (for example, elimination of obvious dihydrofolate reductase inhibitors[32]), some[10][11][12][13] pre-existing bias may exist in the set. […]
(§2) Alternatively, a SYBR Green-based proliferation approach was used for the 72-h assay, as previously described. Briefly, a culture of either synchronized or asynchronous parasitized RBCs (0.3% parasitemia and 4% haematocrit) in screening medium (identical to supplemented medium above except no serum was added) was exposed to serial drug dilutions. Plates were incubated at 37 °C and gassed with 93% N2, 4% CO2 and 3% O2 for 72 h. Following incubation, 10 × SYBR Green I (Invitrogen; supplied in 10,000 × concentration) in lysis buffer ([…], 5 mM EDTA, 0.16% Saponin wt per vol and 1.6% Triton X vol per vol) was added to the wells and the plates were incubated overnight at room temperature before plate reading. EC50 assays were repeated three times, taking the average EC50 value from each assay set, and removing any outliers using a single iteration of Grubbs' test, eliminating values with z-scores above the critical z-value (α=0.05). The raw EC50 values for synchronized parasites assayed in a 384-well format are listed in Supplementary Data 4. The raw EC50 values for asynchronous parasites assayed in a 96 or 1536-well format are listed in Supplementary Data 5.
(§3) EC50 values for each strain were compared with those of the corresponding parent strain to determine fold-shift changes and identify resistance. To minimize the cause variance between assays, all comparisons were conducted between strains assayed under identical conditions. A one-way ANOVA followed by a Dunnet's post-test was conducted in GraphPad Prism to identify significant changes between the parent and resistant strain.

[2] = tested on: DHODH (E182D, parent 3D7); test: Cross-resistance EC50 assay, DHODH; type: cell-based; conditions: Plasmodium falciparum, SYBR green 72 hour assay, synchronized parasites, 384-well format
Excerpt: as §1, §2, §3

hsp90 (D88Y, parent Dd2) = test: Cross-resistance EC50 assay, hsp90; type: cell-based; conditions: Plasmodium falciparum, SYBR green 72 hour assay, synchronized parasites, 384-well format
Excerpt: as §1, §2, §3

W2 = test: Cross-resistance EC50 assay, W2 parent; type: cell-based, Plasmodium falciparum; conditions: for EC50: Plasmodium falciparum, 48 h, read-out: W2F6 (PARENT) Average EC50
Summary of the method: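 P. falciparum asexual blood-stage proliferation, parent/sensitive strain of each resistant clone; 48-h assay with rings (0.5% parasitemia, 2.0% haematocrit) in RPMI-1640/5% AlbuMAX, ^3H-hypoxanthine added at 24 h, normalized to no-drug and 2 μM artesunate controls; alternatively 72-h SYBR Green assay (0.3% parasitemia, 4% haematocrit). EC50s from triplicate fits.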

Dd2 = test: Cross-resistance EC50 assay, Dd2 parent; type: cell-based, Plasmodium falciparum; conditions: for EC50: Plasmodium falciparum, DD2, 72 h
Excerpt: Multidrug resistance alleles, including mutations in P. falciparum chloroquine resistance transporter (pfcrt) and P. falciparum multi-drug resistance transporter 1 (pfmdr1) are very common in field isolates. Therefore, we sought to assess the degree to which pre-existing resistance alleles would contribute to a loss of potency for this diverse collection of small molecule compounds. Fifteen clones derived from three main parent lines were chosen to maximize diversity in mutated pathways and genetic backgrounds, thus representing the variety of resistance seen in the field: 3D7 (ref. [23]), W2 (ref. [24]) or Dd2 (ref. [25]). The 3D7 line originates from the clone of a Netherlands clinical isolate strain[23][26] and is generally considered to be drug sensitive, though it does convey resistance to sulfadoxine. Conversely, W2 (ref. [24], [27]) and Dd2 (ref. [25]) are multi-drug-resistant lines originating from the Indochina III/CDC isolate, which contain point mutations in pfcrt as well as amplifications in pfmdr1 and GTP cyclohydrolase.
as §1, §2, §3

[3] = read-out: Dd2 (PARENT) Average EC50
[4] = read-out: Dd2 (PARENT) EC50 (µM) Average EC50

O=C(Nc1ccc(Cl)c(Cl)c1)Nc1ccc(Cl)c(Cl)c1 [MMV665852]
EC50 (P. falciparum strain 3D7): 1170 nM
EC50 ([1]; strain CYTb:G131S (Dd2 parent)): 1120 nM
EC50 ([2]; strain DHODH (3D7 parent)): 1770 nM
EC50 (hsp90 (D88Y, parent Dd2); strain HSP90 (Dd2 parent)): 893 nM
EC50 (W2): 1590 nM
EC50 (Dd2; [3]): 0.894 µM
EC50 (Dd2; [4]): 1.8 µM

OC(CNC1CCCCC1)Cn1c2ccc(I)cc2c2cc(I)ccc21 (stereo not shown) [MMV665882]
EC50 (P. falciparum strain 3D7): 72.7 nM
EC50 ([1]; strain CYTb:G131S (Dd2 parent)): 46 nM
EC50 ([2]; strain DHODH (3D7 parent)): 51 nM
EC50 (hsp90 (D88Y, parent Dd2); strain HSP90 (Dd2 parent)): 25 nM
EC50 (W2): 26 nM
EC50 (Dd2; [3]): 0.05 µM
EC50 (Dd2; [4]): 0.038 µM

O=C(Nc1ccccc1O)c1ccc(Oc2cccc(C(=O)Nc3ccccc3O)c2)cc1 [MMV665888]
EC50 (P. falciparum strain 3D7): 1210 nM
EC50 ([1]; strain CYTb:G131S (Dd2 parent)): 1010 nM
EC50 ([2]; strain DHODH (3D7 parent)): 1020 nM
EC50 (hsp90 (D88Y, parent Dd2); strain HSP90 (Dd2 parent)): 843 nM
EC50 (W2): 515 nM
EC50 (Dd2; [3]): 0.623 µM
EC50 (Dd2; [4]): 0.66 µM

COc1ccc(C(=O)C2CC2c2ccc(Cl)cc2)cc1 (stereo not shown) [MMV665924]
EC50 (P. falciparum strain 3D7): 820 nM
EC50 ([1]; strain CYTb:G131S (Dd2 parent)): 1910 nM
EC50 ([2]; strain DHODH (3D7 parent)): 927 nM
EC50 (hsp90 (D88Y, parent Dd2); strain HSP90 (Dd2 parent)): 1680 nM
EC50 (W2): 1380 nM
EC50 (Dd2; [3]): 1.19 µM
EC50 (Dd2; [4]): 1.58 µM

CCC(C)NCC(O)(c1ccc(Cl)cc1)c1ccc(Cl)cc1 (stereo not shown) [MMV665928]
EC50 (P. falciparum strain 3D7): 494 nM
EC50 ([1]; strain CYTb:G131S (Dd2 parent)): 669 nM
EC50 ([2]; strain DHODH (3D7 parent)): 878 nM
EC50 (hsp90 (D88Y, parent Dd2); strain HSP90 (Dd2 parent)): 501 nM
EC50 (W2): 137 nM
EC50 (Dd2; [3]): 0.427 µM
EC50 (Dd2; [4]): 0.331 µM

O=C(Nc1ccsc1C(=O)NC1CCCCC1)c1ccc(F)cc1 [MMV665939]
EC50 (P. falciparum strain 3D7): 1040 nM
EC50 ([1]; strain CYTb:G131S (Dd2 parent)): 2090 nM
EC50 ([2]; strain DHODH (3D7 parent)): 771 nM
EC50 (hsp90 (D88Y, parent Dd2); strain HSP90 (Dd2 parent)): 2180 nM
EC50 (W2): 9880 nM
EC50 fold-shift, W2 compared with 3D7 (W2; loss of efficacy): 9.5 ×
EC50 (Dd2; [3]): 1.96 µM
EC50 (Dd2; [4]): 2.06 µM
EC50 fold-shift, Dd2 compared with 3D7, average (Dd2; average): 2.4 ×

Nc1ccc(-c2nc3cc(Cc4ccc5[nH]c(-c6ccc(N)cc6)nc5c4)ccc3[nH]2)cc1 [MMV665943]
EC50 (P. falciparum strain 3D7): 316 nM
EC50 ([1]; strain CYTb:G131S (Dd2 parent)): 410 nM
EC50 ([2]; strain DHODH (3D7 parent)): 335 nM
EC50 (hsp90 (D88Y, parent Dd2); strain HSP90 (Dd2 parent)): 425 nM
EC50 (W2): 191 nM
EC50 (Dd2; [3]): 0.412 µM
EC50 (Dd2; [4]): 0.488 µM

O=C(NC(c1ccccc1)c1ccc2cccnc2c1O)c1ccccc1 (stereo not shown) [MMV666080]
EC50 (P. falciparum strain 3D7): 845 nM
EC50 ([1]; strain CYTb:G131S (Dd2 parent)): 401 nM
EC50 ([2]; strain DHODH (3D7 parent)): 779 nM
EC50 (hsp90 (D88Y, parent Dd2); strain HSP90 (Dd2 parent)): 645 nM
EC50 (W2): 3160 nM
EC50 (Dd2; [3]): 0.426 µM
EC50 (Dd2; [4]): 0.886 µM

COc1cc(C(=O)ON=C(N)Cc2cccc3ccccc23)cc(OC)c1OC [MMV666687]
EC50 (P. falciparum strain 3D7): 348 nM
EC50 ([1]; strain CYTb:G131S (Dd2 parent)): 492 nM
EC50 ([2]; strain DHODH (3D7 parent)): 1070 nM
EC50 (hsp90 (D88Y, parent Dd2); strain HSP90 (Dd2 parent)): 283 nM
EC50 (W2): 463 nM
EC50 (Dd2; [3]): 0.314 µM
EC50 (Dd2; [4]): 0.87 µM

c1cncc(-c2cc(N3CCC(CN4CCOCC4)CC3)nc(-c3ccncc3)n2)c1 [MMV668399]
EC50 (P. falciparum strain 3D7): 83 nM
EC50 ([1]; strain CYTb:G131S (Dd2 parent)): 137 nM
EC50 ([2]; strain DHODH (3D7 parent)): 80 nM
EC50 (hsp90 (D88Y, parent Dd2); strain HSP90 (Dd2 parent)): 90 nM
EC50 (W2): 164 nM
EC50 (Dd2; [3]): 0.087 µM
EC50 (Dd2; [4]): 0.984 µM

CN(C)CCCNCc1ccc(-c2ccc(Cl)c(Cl)c2)o1 [MMV673964]
EC50 (P. falciparum strain 3D7): 607 nM
EC50 ([1]; DD2, CYTb:G131S strain): 363 nM
EC50 ([2]; 3D7, DHODH strain): 337 nM
EC50 (hsp90 (D88Y, parent Dd2); DD2, HSP90 strain): 322 nM
EC50 (W2): 561 nM
EC50 (Dd2; [3]): 0.426 µM
EC50 (Dd2; [4]): 1.12 µM
